Assay results as given in patent EP0049797A2, “Anthelminticum containing 2-(2,3-dimethyl-phenoxy-methyl)-2-imidazoline” (BAYER AG, priority 1980, dated 1982).
Where two headings read alike, the source gives them in different places.

Tests used:
[1] = test system: Haemonchus contortus normaler Stamm; test: Stomach and intestinal worm test in sheep (faecal egg count reduction), normal strain; type: in vivo, Schaf; conditions: read-out: Dosis effectiva minima (Red. 90 % in mg/kg)
Description: (§1) Magen- und Darmwurmtest/Schaf
(§2) Experimentell mit Haemonchus contortus infizierte Schafe wurden nach Ablauf der Präpatenzzeit der Parasiten behandelt. Die Wirkstoffmenge wurde als reiner Wirkstoff in Gelatinekapseln oral appliziert oder in einem geeigneten Lösungsmittel gelöst und subcutan oder dermal appliziert.
(§3) Der Wirkungsgrad wird dadurch bestimmt, daß man die mit dem Kot ausgeschiedenen Wurmeier vor und nach der Be-handlung quantitativ auszählt.
(§4) Ein völliges Sistieren der Eiausscheidung nach der Behandlung bedeutet, daß die Würmer abgetrieben wurden oder so geschädigt sind, daß sie keine Eier mehr produzieren können (Dosis effectiva). Geprüfte Wirkstoffe und wirksame Dosierungen (dosis effectiva minima) sind aus der nachfolgenden Tabelle ersichtlich.

[2] = test system: Haemonchus contortus gegen Benz-imidazole resistenter Stamm; test: Stomach and intestinal worm test in sheep (faecal egg count reduction), benzimidazole-resistant strain; type: in vivo, Schaf; conditions: read-out: Dosis effectiva minima (Red. 90 % in mg/kg), per os, experimentally infected sheep
Description: as §1, §2, §3, §4

[3] = per os, experimentally infected sheep, normaler Stamm

## c1ccc2[nH]c(-c3cscn3)nc2c1 [Thiabenzol]
[1]; [3]
  minimal effective dose: 25 mg/kg
[2]
  minimal effective dose: 250 mg/kg

## CCCCc1ccc2[nH]c(NC(=O)OC)nc2c1 [Parbendazol]
[1]
  minimal effective dose: 1 mg/kg
[2]
  minimal effective dose: 10 mg/kg

## CCCSc1ccc2nc(NC(=O)OC)[nH]c2c1 [Albendazol]
[1]
  minimal effective dose: 0.5 mg/kg
[2]
  minimal effective dose: 5 mg/kg

## Cc1cccc(OCC2=NCCN2)c1C [2-(2,3-Dimethyl-phenoxymethyl)-2-imidazolin]
[1]; dermal, experimentally infected sheep, normaler Stamm
  minimal effective dose: 1 mg/kg
[1]; [3]
  minimal effective dose: 0.5 mg/kg
[1]; subcutan, experimentally infected sheep, normaler Stamm
  minimal effective dose: 0.5 mg/kg
